Values joined by “and” are separate entries in the source; they are usually repeats but may differ in a detail not shown here. Equal values may be shown once.
Legend:
Type in all cases: physicochemical
[1] = OliGreen assay: percentage of oligo that is encapsulated; conditions: for Encap Oligo %: Ex. 2 procedure
Experimental: The Oligreen Assay was used to quantify the amount of oligonucleotide loaded into the vesicles. A fluorescent dye binding assay for quantifying single stranded oligonucleotide in aqueous solutions was established using a Biolumin™ 960 fluorescent plate reader (Molecular Dynamics, Sunnyvale, Calif., USA). Briefly, aliquots of encapsulated oligonucleotide were diluted in HEPES buffered saline (HBS; 20 mM HEPES, 145 mM NaCl, pH 7.5). A 10 μL aliquot of the diluted sample was added to 100 μL of a 1:200 dilution of Oligreen™ reagent, both with and without 0.1% of Triton X-100 detergent. An oligo standard curve was prepared with and without 0.1% Triton X-100 for quantification of encapsulated oligo. Fluorescence of the Oligreen™-antisense complex was measured using excitation and emission wavelengths of 485 nm and 520 nm, respectively. Surface associated antisense was determined by comparing the fluorescence measurements in the absence and presence of detergent.
(§1) [formula] The percentage of oligo that is encapsulated (i.e., incorporated in bilayers or entrapped in the interior of the lipid particle) was determined with the OliGreen assay described above.

[2] = Final drug/lipid ratio and encapsulation efficiency (E.E.)
Experimental: The procedure of Example 2 was repeated with changes to various parameters to determine which might be critical to the preparation of fully lipid-encapsulated therapeutic agent particles in accordance with the invention. In these experiments, the total oligonucleotide recovery (yield), the total lipid recovery (yield) and the encapsulation efficiency were considered as indications of the quality of the product and the process. Total oligonucleotide recovery was calculated using the formula:
[formula] Encapsulation Efficiency (E.E.) was calculated using the formula:
as §1

[3] = Trapping efficiency of oligonucleotide in liposomes after anion exchange chromatography
Experimental: Entrapment procedure. […] At pH 7.5 DODAP becomes charge-neutral and oligonucleotides bound to the external membrane surface are released from their association with the cationic lipid. Unencapsulated oligonucleotides were subsequently removed by anion exchange chromatography on DEAE-sepharose CL-6B columns equilibrated in HBS pH 7.5. When octylglucoside was used in place of ethanol the detergent was added to liposomes (1:1 v/v) to final concentrations ranging from 30–40 mM. All the subsequent steps were performed as described above except for the initial dialysis step against pH 4 citrate buffer, which was extended to 5 hrs. In the following examples, if not otherwise mentioned, DSPC/Chol/PEG-CerC14/DODAP liposomes (20:45:10:25 mol %), c-myc (Seq. ID No. 1), 40% (v/v) ethanol, 300 mM citrate buffer and incubation at 40° C. were used.
Determination of trapping efficiencies: Trapping efficiencies were determined after removal of external oligonucleotides by anion exchange chromatography. Oligonucleotide concentrations were determined by UV-spectroscopy on a Shimadzu UV160U spectrophotometer. The absorbance at 260 nm was measured after solubilization of the samples in chloroform/methanol at a volume ratio of 1:2.1:1 chloroform/methanol/aqueous phase (sample/HBS). If the solution was not completely clear after mixing an additional 50–100 μl of methanol was added. Alternatively, absorbance was read after solubilization of the samples in 100 mM octylglucoside. The antisense concentrations were calculated according to: c [μg/μl]=A260*1 OD260 unit [μg/μl]*dilution factor [μg/μl], where the dilution factor is given by the total assay volume […] divided by the sample volume [μl]. OD260 units were calculated from pairwise extinction coefficients for individual deoxy-nucleotides, which take into account nearest neighbor interactions. 1OD corresponds to 30.97 μg/ml c-myc (Seq. ID. No 1), 33.37 μg/ml h-ICAM-1 (Seq. ID No. 2) and 34 μg/ml EGFR (Seq. ID No. 3). Lipid concentrations were determined by the inorganic phosphorus assay after separation of the lipids from the oligonucleotides by a Bligh and Dyer extraction (Bligh and Dyer, 1959). Briefly, to 250 μl of aqueous phase (sample/HBS) 525 μl methanol and 250 μl chloroform were added to form a clear single phase (aqueous phase/methanol/chlorofrom 1:2.1:1 vol). If the solution was not clear a small amount of methanol was added. Subsequently, 250 μl HBS and an equal volume of chloroform were added. The samples were mixed and centrifuged for 5–10 min at 3000 rpm. […] The chloroform phase was assayed for phospholipid content according to the method of Fiske and Subbarrow (1925). If not otherwise mentioned, trapping efficiencies were expressed as oligonucleotide-to-lipid weight ratios [w/w].

[4] = initial EtOH 33%, initial drug/lipid 0.2
[5] = initial EtOH 40%, initial drug/lipid 0.2
[6] = initial EtOH 43%, initial drug/lipid 0.2
[7] = Ex. 2 procedure, initial drug/lipid ratio 0.1

5′-TAACGTTGAGGGGCAT-3′ (listed as DNA, chemistry not given here) [INX-6295]
Encap Oligo % ([1]; initial drug/lipid ratio 0.1): ≧90%
Encap Oligo % ([1]; initial drug/lipid ratio 0.2): ≧80%
Encapsulated Oligo % ([1]; citrate buffer 50 mM, initial drug/lipid 0.1): 94%
Encapsulated Oligo % ([1]; citrate buffer 100 mM, initial drug/lipid 0.1): 90%
Encapsulated Oligo % ([1]; citrate buffer 200 mM, initial drug/lipid 0.1): 91%
Encapsulated Oligo % ([1]; citrate buffer 300 mM, initial drug/lipid 0.1): 92%
Encaps Oligo % ([1]; incubation temp 40 °C, 1 hour): 91%
Encaps Oligo % ([1]; incubation temp 60 °C, 1 hour): 83%
Encaps Oligo % ([1]; incubation temp RT(20–22) °C, 1 hour): 90%
Encapsulated Oligo % ([1]; incubation time 0.5 hr at 40° C.): 92%
Encapsulated Oligo % ([1]; incubation time 1 hr at 40° C.): 94%
Encapsulated Oligo % ([1]; incubation time 2 hr at 40° C.): 95%
Encaps Oligo % [1, 4]: 88%
Encaps Oligo % ([1]; initial EtOH 36%, initial drug/lipid 0.1): 85–89%
Encaps Oligo % [1, 5]: 82%
Encaps Oligo % ([1]; initial EtOH 43%, initial drug/lipid 0.1): 84–89%
Encaps Oligo % [1, 6]: 62%
Encaps Oligo % ([1]; initial EtOH 45%, initial drug/lipid 0.1): 90–92%
Encaps Oligo % ([1]; oligo stock 10 mg/ml, initial drug/lipid 0.1): 90%
Encaps Oligo % ([1]; oligo stock 20 mg/ml, initial drug/lipid 0.1): 88%
Encaps Oligo % ([1]; oligo stock 30 mg/ml, initial drug/lipid 0.1): 90%
Encaps Oligo % ([1]; oligo stock 40–50 mg/ml, initial drug/lipid 0.1): 88–94%
E.E. % [2, 7]: 100%
Final Drug/Lipid Ratio [2, 7]: 0.1
Final Drug/Lipid Ratio ([2]; Ex. 2 procedure, initial drug/lipid ratio 0.2): 0.17–0.2
E.E. % [2, 4]: 60%
Final Drug/Lipid [2, 4]: 0.12
E.E. % [2, 5]: 75%
Final Drug/Lipid [2, 5]: 0.15
E.E. % [2, 6]: 95%
Final Drug/Lipid [2, 6]: 0.19
% encapsulation ([3]; 2.5 mol % PEG-CerC14, 40% ethanol, initial oligonucleotide-to-lipid 0.037 mol/mol, listed as c-myc): 45% and 45.7%
% encapsulation ([3]; 5 mol % PEG-CerC14, 40% ethanol, initial oligonucleotide-to-lipid 0.037 mol/mol): 50.9%
% encapsulation ([3]; 10 mol % PEG-CerC14, 25% ethanol, initial oligonucleotide-to-lipid 0.037 mol/mol, listed as c-myc): 5%
% encapsulation ([3]; 10 mol % PEG-CerC14, 40% ethanol, initial oligonucleotide-to-lipid 0.037 mol/mol, listed as c-myc): 60% and 56.5%
final antisense-to-lipid ratio ([3]; 10 mol % PEG-CerC14 liposomes, initial antisense-to-lipid weight ratio 0.29): 0.16
% encapsulation ([3]; DSPC/Chol/DODAP liposomes (no modified lipid), 0% EtOH [v/v], molar ODN/lipid 0.035, pH 4): 4.4%
% encapsulation ([3]; DSPC/Chol/DODAP liposomes (no modified lipid), 20% EtOH [v/v], molar ODN/lipid 0.035, pH 4): 20.5%
% encapsulation ([3]; DSPC/Chol/DODAP liposomes (no modified lipid), 30% EtOH [v/v], molar ODN/lipid 0.035, pH 4): 32.5%
% encapsulation ([3]; OGP 30 mM in place of ethanol, DSPC/Chol/DODAP/PEG-CerC14 20/45/25/10 mol %, initial oligonucleotide-to-lipid 0.23 mg/mg): 51%
% encapsulation ([3]; OGP 35 mM in place of ethanol, DSPC/Chol/DODAP/PEG-CerC14 20/45/25/10 mol %, initial oligonucleotide-to-lipid 0.23 mg/mg): 57%
% encapsulation ([3]; OGP 40 mM in place of ethanol, DSPC/Chol/DODAP/PEG-CerC14 20/45/25/10 mol %, initial oligonucleotide-to-lipid 0.23 mg/mg): 55%
oligonucleotide molecules per 100 nm liposome ([3]; at maximum entrapment): approximately 2250
